These results are taken from article PMC4664966, “Discovery and characterization of novel inhibitors of the sodium-coupled citrate transporter (NaCT or SLC13A5)” (Scientific Reports, 2015).

Structures are written as SMILES. A value given as a limit tells only on which side of the number the result lay.

The subject of one series is HEK-293 parental cells. Nature of the series: Intracellular concentration of compound in HEK-293 parental cells. The conditions noted are these: 1 hour incubation; data not shown. Type of series: in vitro ADME, human.
The target of series [1] is Serotonin receptor 1B (5-HT1B) (Homo sapiens, UniProt P28222). Nature of the series: Selectivity data (Table S1). It counts as binding.
Chain of Serotonin receptor 1B (5-HT1B) (P28222 whole entry): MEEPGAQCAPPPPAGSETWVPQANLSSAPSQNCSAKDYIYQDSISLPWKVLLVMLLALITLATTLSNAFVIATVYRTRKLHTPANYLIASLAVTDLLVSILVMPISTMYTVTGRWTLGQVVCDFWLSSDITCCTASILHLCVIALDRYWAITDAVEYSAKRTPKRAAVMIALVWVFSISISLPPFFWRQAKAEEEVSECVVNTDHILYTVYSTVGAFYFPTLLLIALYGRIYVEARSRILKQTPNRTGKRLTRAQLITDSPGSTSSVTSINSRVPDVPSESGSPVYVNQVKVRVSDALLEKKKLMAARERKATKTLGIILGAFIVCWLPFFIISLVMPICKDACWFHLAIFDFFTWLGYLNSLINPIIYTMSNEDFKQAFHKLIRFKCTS
Series [2] has as its target Nicotinic acetylcholine receptor complex (alpha-4 / beta-2) (Homo sapiens, UniProt P17787+P43681). Nature of the series: Selectivity data (Table S1). It counts as binding.
Series [3] deals with Vascular endothelial growth factor receptor 2 (VEGFR-2) (Homo sapiens, UniProt P35968). Description: Selectivity data (Table S1). It counts as binding.
Chain of Vascular endothelial growth factor receptor 2 (VEGFR-2) (P35968 20-1356): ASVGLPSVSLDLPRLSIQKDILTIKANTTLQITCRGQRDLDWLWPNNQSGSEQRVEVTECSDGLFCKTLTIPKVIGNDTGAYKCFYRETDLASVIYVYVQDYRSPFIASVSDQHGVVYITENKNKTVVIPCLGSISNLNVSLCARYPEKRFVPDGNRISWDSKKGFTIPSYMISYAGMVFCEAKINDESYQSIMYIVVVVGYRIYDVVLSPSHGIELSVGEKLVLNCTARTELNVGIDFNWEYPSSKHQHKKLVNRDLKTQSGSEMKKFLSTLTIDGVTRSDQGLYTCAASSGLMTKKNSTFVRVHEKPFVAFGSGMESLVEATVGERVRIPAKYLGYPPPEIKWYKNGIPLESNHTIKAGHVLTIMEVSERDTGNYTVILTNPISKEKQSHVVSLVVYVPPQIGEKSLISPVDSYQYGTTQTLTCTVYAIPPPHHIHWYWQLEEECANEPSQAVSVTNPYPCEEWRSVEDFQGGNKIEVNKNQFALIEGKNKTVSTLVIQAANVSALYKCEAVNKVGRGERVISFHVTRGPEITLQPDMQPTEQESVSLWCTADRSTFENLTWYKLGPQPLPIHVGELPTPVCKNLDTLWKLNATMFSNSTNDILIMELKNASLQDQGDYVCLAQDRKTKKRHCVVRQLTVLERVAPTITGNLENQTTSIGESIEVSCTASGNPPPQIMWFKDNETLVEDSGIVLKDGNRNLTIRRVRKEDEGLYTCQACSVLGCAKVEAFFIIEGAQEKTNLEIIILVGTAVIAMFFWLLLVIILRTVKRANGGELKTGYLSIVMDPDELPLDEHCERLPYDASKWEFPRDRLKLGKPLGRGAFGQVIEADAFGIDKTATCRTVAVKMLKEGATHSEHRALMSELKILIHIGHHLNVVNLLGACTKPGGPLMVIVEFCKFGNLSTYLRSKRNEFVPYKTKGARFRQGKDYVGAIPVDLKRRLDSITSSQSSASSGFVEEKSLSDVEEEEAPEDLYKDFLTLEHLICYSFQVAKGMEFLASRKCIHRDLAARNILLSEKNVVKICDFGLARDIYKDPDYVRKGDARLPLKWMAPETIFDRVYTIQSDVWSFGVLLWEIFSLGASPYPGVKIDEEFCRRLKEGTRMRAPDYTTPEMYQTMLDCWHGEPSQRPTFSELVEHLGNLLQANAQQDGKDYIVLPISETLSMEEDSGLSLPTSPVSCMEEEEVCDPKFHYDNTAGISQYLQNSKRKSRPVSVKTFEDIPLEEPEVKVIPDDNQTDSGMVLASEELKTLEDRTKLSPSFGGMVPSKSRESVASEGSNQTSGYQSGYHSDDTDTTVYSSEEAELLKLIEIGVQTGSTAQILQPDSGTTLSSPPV
In series [4] the target is Cannabinoid receptor 1 (CB1) (Homo sapiens, UniProt P21554). Nature of the series: Selectivity data (Table S1). Type of series: binding.
Chain of Cannabinoid receptor 1 (CB1) (P21554 whole entry): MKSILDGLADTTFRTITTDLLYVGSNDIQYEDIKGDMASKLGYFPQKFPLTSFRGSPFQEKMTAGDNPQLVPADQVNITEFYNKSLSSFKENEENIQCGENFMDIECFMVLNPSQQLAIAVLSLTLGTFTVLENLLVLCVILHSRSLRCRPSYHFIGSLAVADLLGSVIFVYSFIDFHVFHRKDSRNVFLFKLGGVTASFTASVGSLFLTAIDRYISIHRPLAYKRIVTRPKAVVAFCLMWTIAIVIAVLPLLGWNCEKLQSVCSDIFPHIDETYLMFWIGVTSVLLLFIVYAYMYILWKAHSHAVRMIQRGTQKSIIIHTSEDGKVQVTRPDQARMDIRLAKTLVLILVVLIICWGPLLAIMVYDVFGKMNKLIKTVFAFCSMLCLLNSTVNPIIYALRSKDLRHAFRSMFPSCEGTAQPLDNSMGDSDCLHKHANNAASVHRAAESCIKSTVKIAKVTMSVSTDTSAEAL
The next series addresses Endothelin (ETA) (Homo sapiens, UniProt P25101). Nature of the series: Selectivity data (Table S1). It counts as binding.
The target in the next series is T1, NaDC3 (SLC13A3) (Homo sapiens, UniProt Q8WWT9).
T1 construct: host or cells: HEK-293, transient (Fugene HD)
T1 sequence (Q8WWT9 1-602): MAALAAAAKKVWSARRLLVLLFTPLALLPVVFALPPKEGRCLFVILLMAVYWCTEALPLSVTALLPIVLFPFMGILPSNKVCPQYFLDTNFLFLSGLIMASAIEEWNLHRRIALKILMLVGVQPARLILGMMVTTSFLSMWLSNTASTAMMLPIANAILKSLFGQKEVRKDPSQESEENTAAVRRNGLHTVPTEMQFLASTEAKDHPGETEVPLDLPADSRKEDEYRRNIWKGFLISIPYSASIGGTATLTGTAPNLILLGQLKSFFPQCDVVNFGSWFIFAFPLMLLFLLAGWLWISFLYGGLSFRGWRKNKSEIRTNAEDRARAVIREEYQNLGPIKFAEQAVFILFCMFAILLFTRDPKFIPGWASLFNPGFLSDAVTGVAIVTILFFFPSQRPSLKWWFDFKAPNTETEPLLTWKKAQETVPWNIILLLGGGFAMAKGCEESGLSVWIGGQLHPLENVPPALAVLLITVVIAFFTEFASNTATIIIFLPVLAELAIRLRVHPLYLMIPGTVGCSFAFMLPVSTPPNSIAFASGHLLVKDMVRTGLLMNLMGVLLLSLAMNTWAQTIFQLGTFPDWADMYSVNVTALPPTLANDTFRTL
Description: Inhibition of citrate or succinate uptake in HEKNaDC3 cells. Type of series: cell-based. The text has this: Protocols to generate the stable cell line overexpressing NaCT or cell transfection with SLC13A2 or SLC13A3 can be found in the supporting information. HEK-293 cells stably transfected with the human sodium Citrate transporter SLC13A5 or transiently transfected with the human SLC13A2 or SLC13A3 transporter were removed from the flasks with dissociation buffer and re-suspended in an equal volume of growth media (DMEM, High Glucose supplemented with 10% heat inactivated fetal bovine serum and 500 μg/ml Geneticin). For the transient transfections, Geneticin was eliminated from the media. Cell suspensions were centrifuged at 1,000 rpm for approximately 5 minutes. Resulting cell pellets were re-suspended in growth media and placed in a 37 °C water bath for approximately 10 minutes prior to a final spin at 1,000 rpm. Following this spin the resulting cell pellets were re-suspended in assay buffer, 142 mM NaCl (or 142 mM choline chloride), 5 mM KCl, 1.2 mM MgSO4, 1.5 mM CaCl, 5 mM glucose and 25 mM HEPES pH 7.4. Cell suspensions were counted and the concentration adjusted as needed with assay buffer to 2e[6] viable cells /mL. 20 μL of cell suspension were added to 384-well cyotstar-T plates followed by the addition of 5 μL of 10× concentration of compound. Cells and compound were incubated at 37 °C for approximately 30 minutes prior to the addition of 25 μL of 300 μM citric acid (16 μM radiolabeled [^14C]-citric acid and 284 μM cold citric acid) to make a 150 μM final concentration of citric acid or 21 μM [^14C]-succinic acid. After substrate addition, the uptake of radioactivity was monitored on Perkin Elmer Microbeta plate reader. Data from reads between 45–90 minutes was used to assess the ability of test compounds to inhibit the uptake of citric or succinic acid. […]
were plated, and incubated for 48 hours. Following the incubation, NaDC1 and NaDC3 assays were executed identical to the procedure for NaCT. […]
The solution was heated to reflux until the total volume was reduced to ~25 mL. […]

The next series concerns HepG2 cells. Description: Cellular toxicity in HepG2 cells. It counts as cell-based. To be noted: concentrations up to 300 μM and 72 hours incubation.
Series [5] has as its target Opioid receptor, kappa 1 (OPRK1) (Homo sapiens, UniProt P41145). Nature of the series: Selectivity data (Table S1). It counts as binding.
Series [6] deals with Serotonin receptor 3 (5-HT3) (Homo sapiens, UniProt P46098). Nature of the series: Selectivity data (Table S1). Type of series: binding.
The next series concerns Calcium channel, L-type. Nature of the series: Selectivity data (Table S1).
Series [7] deals with Arginine vasopressin receptor 1A (AVPR1A) (Homo sapiens, UniProt P37288). Description: Selectivity data (Table S1). It counts as binding.
Chain of Arginine vasopressin receptor 1A (AVPR1A) (P37288 whole entry): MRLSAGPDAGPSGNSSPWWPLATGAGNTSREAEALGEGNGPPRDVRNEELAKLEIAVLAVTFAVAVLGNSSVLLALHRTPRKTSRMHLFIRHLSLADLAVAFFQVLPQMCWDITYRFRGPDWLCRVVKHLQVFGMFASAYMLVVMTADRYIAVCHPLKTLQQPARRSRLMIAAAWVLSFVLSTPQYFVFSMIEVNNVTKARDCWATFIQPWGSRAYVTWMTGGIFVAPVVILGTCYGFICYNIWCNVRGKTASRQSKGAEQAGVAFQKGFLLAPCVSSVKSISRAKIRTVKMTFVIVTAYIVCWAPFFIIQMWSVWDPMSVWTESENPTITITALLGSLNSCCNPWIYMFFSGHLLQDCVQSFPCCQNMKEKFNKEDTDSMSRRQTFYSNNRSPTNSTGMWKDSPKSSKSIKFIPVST
Series [8] has as its target Adrenergic receptor, alpha-1A (ADRA1A) (Homo sapiens, UniProt P35348). Nature of the series: Selectivity data (Table S1). It counts as binding.
A short description of series [9]: Intra-/extracellular unbound concentration ratio (Kpuu) in HEKNaCT cells. Type of series: in vitro ADME. To be noted: human, ratio of free intracellular and media concentration after 1 h incubation at 1 μM, geometric mean of 3 replicates ± SD. The protocol:
kpuu values were determined by measuring total cell and media concentrations corrected for their respective fraction unbound. Detailed methods to determine intra- and extracellular concentrations of compound in the HEKNaCT cells and human hepatocytes will be the subject of a separate manuscript that is under preparation. […]
Intra- and extracellular concentrations of compound in cellular assays. kpuu values were determined by measuring total cell and media concentrations corrected for their respective […]
fraction unbound. […]
The solution was heated to reflux until the total volume was reduced to ~25 mL.
Hexane (25 mL) was added and the mixture was brought back to reflux than allowed to slowly cool to room temperature. After standing at room temperature for 16 h, the resulting suspension was filtered and dried under high vacuum to yield (S)-2-(4-(tert-butyl)phenethyl)-2-hydroxysuccinic acid (3) as a white solid. The filtrate was allowed to stand at room temperature for 4 days. The solvent evaporated to ~15 mL and large, colorless crystals formed.
X-ray analysis. Data collection was performed on a Bruker APEX diffractometer at room temperature. Data collection consisted of 3 omega scans and low angle and three at high angle; each with 0.5 step. In addition, 2 phi scans were collected to improve the quality of the […]

The target of another series is Androgen receptor (Homo sapiens, UniProt P10275). Description: Selectivity data (Table S1). It counts as binding.
Chain of Androgen receptor (P10275 whole entry): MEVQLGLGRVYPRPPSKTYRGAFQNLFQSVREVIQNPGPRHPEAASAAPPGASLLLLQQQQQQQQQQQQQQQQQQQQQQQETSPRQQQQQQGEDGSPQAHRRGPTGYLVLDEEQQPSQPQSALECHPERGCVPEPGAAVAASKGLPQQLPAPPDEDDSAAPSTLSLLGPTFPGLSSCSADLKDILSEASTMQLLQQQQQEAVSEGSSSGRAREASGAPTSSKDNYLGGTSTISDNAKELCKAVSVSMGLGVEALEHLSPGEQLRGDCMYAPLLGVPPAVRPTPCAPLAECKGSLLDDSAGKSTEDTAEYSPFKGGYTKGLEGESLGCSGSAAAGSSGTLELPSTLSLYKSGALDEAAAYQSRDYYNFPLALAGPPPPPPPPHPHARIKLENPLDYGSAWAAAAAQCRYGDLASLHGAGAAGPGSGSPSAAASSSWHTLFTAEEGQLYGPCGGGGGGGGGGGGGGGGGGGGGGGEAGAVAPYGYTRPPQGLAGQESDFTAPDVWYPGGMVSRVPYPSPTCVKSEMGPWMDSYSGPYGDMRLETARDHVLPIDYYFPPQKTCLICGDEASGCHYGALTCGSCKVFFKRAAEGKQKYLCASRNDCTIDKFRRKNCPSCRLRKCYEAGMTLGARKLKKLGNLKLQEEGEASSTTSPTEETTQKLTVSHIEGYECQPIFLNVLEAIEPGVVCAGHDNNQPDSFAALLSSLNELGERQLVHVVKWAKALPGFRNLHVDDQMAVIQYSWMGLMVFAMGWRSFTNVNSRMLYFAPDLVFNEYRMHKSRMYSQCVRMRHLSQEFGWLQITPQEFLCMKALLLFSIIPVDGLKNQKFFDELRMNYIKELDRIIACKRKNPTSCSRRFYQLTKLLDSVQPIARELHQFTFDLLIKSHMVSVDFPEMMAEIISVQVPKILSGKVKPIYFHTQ
In series [10] the target is Diacylglycerol acyltransferase 1 (DGAT1) (Homo sapiens, UniProt O75907). Nature of the series: Selectivity data (Table S1). Type of series: biochemical.

Chain of Opioid receptor, kappa 1 (OPRK1) (P41145 whole entry): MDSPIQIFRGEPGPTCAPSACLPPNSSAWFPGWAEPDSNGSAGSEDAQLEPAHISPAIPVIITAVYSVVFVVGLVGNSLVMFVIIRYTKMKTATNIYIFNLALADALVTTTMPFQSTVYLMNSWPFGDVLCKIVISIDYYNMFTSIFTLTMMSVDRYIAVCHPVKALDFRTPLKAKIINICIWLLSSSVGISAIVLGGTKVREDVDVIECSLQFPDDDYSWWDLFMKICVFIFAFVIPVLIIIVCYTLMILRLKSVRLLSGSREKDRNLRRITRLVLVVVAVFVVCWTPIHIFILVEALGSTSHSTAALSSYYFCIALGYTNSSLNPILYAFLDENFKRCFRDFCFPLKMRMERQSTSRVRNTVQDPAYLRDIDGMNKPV
Chain of Adrenergic receptor, alpha-1A (ADRA1A) (P35348 whole entry): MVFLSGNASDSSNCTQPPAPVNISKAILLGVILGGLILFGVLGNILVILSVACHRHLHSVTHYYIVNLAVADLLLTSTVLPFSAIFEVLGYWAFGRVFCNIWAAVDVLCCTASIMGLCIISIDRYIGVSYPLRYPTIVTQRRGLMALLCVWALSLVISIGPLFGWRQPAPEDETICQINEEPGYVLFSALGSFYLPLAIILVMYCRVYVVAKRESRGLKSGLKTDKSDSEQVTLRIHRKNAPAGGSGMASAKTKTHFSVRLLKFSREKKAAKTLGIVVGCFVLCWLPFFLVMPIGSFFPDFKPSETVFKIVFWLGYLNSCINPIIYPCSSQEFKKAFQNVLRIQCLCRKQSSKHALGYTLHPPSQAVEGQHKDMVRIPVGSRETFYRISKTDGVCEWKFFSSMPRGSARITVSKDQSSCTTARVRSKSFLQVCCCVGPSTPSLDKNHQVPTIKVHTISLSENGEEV
Chain of Endothelin (ETA) (P25101 21-427): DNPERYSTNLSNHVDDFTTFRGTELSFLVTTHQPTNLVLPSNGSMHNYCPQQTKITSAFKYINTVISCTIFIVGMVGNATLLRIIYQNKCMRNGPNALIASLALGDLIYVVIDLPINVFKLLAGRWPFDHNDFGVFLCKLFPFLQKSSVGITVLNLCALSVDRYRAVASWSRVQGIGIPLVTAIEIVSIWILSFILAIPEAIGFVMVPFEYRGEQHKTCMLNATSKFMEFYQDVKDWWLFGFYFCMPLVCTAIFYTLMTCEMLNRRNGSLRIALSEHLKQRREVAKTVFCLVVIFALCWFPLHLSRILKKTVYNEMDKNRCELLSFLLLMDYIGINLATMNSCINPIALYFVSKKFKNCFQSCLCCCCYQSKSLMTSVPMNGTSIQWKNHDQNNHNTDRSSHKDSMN

Broadly, the inhibition is the share of the control response that was lost under treatment. The low end stands for little suppression, the high end for strong suppression. A word on the IC50: it is the point on the concentration scale where inhibition reaches its midpoint. As to `CC(C)(C)c1ccc(CC[C@@](O)(CC(=O)O)C(=O)O)cc1` [Compound 2], in the series on HEK-293 parental cells, the “intracellular level in HEK-293 parental cells” value is reported as “not detected at significant levels”. Further, the inhibition at 100 µM is less than 10% in series [1]; less than 10% in [2]; less than 10% in [3]; less than 10% in series [4]; less than 10% at Endothelin (ETA); 13% in [5]. Moreover, the inhibition at 100 µM (in [6]; in series [7]; in [8]; on Androgen receptor) was less than 10% each time. Besides, on NaDC3 (SLC13A3) (HEK-293-derived system overexpressing NaDC3), the “inhibition of citrate or succinate uptake, NaDC3” value was “No measurable inhibition”. Moreover, the IC50 is greater than 100 µM at NaDC3 (SLC13A3) (compound 4: mean of 2 replicates); greater than 30 µM with Calcium channel, L-type; greater than 50 µM in series [10]. Besides, the cellular toxicity result in the series with HepG2 cells is listed as “no observable toxicity”. Further, the Kp uu at 1 h, 1 µM in series [9] came out at 29 ± 5.
